Experimental data: patent US8378117B2 (priority 2005, dated 2013)
pEC50, pIC50: −log10 of the molar value. Several values for one entry are separate records, joined by “and”; a condition that tells them apart may be missing. Equal values may be shown once. Read-outs that look alike come from different tables or passages of the source.

How the values were obtained:
CB1 receptor [1] = target: T1, CB1 receptor (Homo sapiens, UniProt P21554); assay: Binding assay for CB1 agonists or inverse agonists (SK-N-MC membranes, [3H]-CP-55,940); details: for inhibition at 1 µM: read-out: CB1 receptor binding percent inhibition, test concentration 1 μM (footnote 1); for inhibition at 0.25 µM: read-out: CB1 receptor binding percent inhibition, test concentration 0.25 μM (footnote 8); for inhibition at 0.2 µM: read-out: CB1 receptor binding percent inhibition, test concentration 0.2 μM (footnote 2)
T1 construct: expressed in transfected cells
T1 sequence (P21554 whole entry): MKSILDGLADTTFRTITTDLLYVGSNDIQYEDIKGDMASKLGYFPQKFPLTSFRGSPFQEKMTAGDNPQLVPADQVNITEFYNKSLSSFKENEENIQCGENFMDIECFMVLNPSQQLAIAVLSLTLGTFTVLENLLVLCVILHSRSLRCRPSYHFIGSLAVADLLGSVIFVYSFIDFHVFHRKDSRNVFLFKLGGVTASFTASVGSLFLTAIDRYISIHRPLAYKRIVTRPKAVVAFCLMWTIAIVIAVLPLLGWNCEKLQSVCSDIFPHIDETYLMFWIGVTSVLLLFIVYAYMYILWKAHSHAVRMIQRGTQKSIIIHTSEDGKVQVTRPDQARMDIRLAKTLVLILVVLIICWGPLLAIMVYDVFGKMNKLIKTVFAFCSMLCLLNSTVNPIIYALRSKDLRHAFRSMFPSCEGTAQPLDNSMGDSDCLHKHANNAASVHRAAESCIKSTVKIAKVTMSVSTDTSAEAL
How it was run: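 Membranes from SK-N-MC cells stably expressing human CB1 incubated with compound and [3H]-CP-55,940 ([…]) for 90 min at 30° C in Tris-HCl pH 7.5, MgCl2, EDTA, fatty-acid-free BSA. Non-specific binding defined with 10 uM WIN 55,212; filtration, scintillation count; IC50 by linear regression.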

CB1 receptor [2] = target: T1, CB1 receptor; assay: cell-based
How it was run: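 SK-N-MC cells stably co-expressing human CB1 and a CRE-β-galactosidase reporter; forskolin-induced β-gal activity measured after compound treatment, as % of vehicle-treated cells (100%). EC50 by linear regression from concentration series; otherwise % change at a single concentration.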

CB2 receptor = target: T2, CB2 receptor (Homo sapiens, UniProt P34972); assay: Binding assay for CB2 agonists or inverse agonists (SK-N-MC membranes, [3H]-CP-55,940); details: for CB2 receptor binding percent inhibition: test concentration not stated; for pIC50: Cannabinoid CB2 Receptor Binding IC50, calculated by linear regression from percent inhibition at various test concentrations; for inhibition at 1 µM: read-out: CB2 receptor binding percent inhibition, test concentration 1 μM (footnote 1); for inhibition at 0.25 µM: read-out: CB2 receptor binding percent inhibition, test concentration 0.25 μM (footnote 8); for inhibition at 0.2 µM: read-out: CB2 receptor binding percent inhibition, test concentration 0.2 μM (footnote 2)
T2 construct: expressed in transfected cells
T2 sequence (P34972 whole entry): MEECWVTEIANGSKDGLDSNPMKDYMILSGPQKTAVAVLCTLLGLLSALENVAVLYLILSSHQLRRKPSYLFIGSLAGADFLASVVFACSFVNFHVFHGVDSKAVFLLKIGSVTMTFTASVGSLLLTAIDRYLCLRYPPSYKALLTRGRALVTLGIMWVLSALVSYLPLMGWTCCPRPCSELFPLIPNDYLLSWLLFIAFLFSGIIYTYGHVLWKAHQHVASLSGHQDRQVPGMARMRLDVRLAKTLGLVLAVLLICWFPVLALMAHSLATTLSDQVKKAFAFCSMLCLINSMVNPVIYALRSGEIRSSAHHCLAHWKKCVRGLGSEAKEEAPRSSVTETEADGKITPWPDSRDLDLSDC
How it was run: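 Membranes from SK-N-MC cells stably expressing human CB2 were incubated with radioligand and test compounds for 90 min at 30 °C in Tris-HCl buffer, pH 7.5, with MgCl2, EDTA and fatty-acid-free BSA. Filter-bound radioactivity was counted; IC50 was derived by linear regression of percent inhibition.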

[3] = Cannabinoid CB1 Receptor Binding IC50, calculated by linear regression from percent inhibition at various test concentrations
[4] = CB1 Receptor Functional Inverse Agonist EC50, forskolin induced β-galactosidase activity, SK-N-MC cells
[5] = CB1 Receptor Functional Agonist EC50, SK-N-MC cells, forskolin induced β-galactosidase activity

| Compound | pIC50 (CB1 receptor [1]; [3]) | pEC50 (CB1 receptor [2]; [4]) | inhibition at 0.2 µM (CB1 receptor [1]) [%] | inhibition at 0.2 µM (CB2 receptor) [%] | further results |
| --- | --- | --- | --- | --- | --- |
| C[C@@H](NC(=O)c1nn(C2CCCCC2)c2c1CCCCC2Cc1cccc(Cl)c1)c1ccccc1 (stereo partly drawn) [Cpd 8, 8-(3-chloro-benzyl)-1-cyclohexyl-1,4,5,6,7,8-hexahydro-cycloheptapyrazole-3-carboxylic acid [(1R)-1-phenyl-ethyl]-amide] | – | – | – | – | inhibition at 1 µM (CB1 receptor [1]): 30%; pEC50 (CB1 receptor [2]; forskolin induced β-galactosidase activity, SK-N-MC cells, read-out: CB1 Receptor Functional Inverse Agonist EC50): 6.40; CB2 receptor binding percent inhibition (CB2 receptor): 5% |
| CC12CCC(C1)C(C)(C)[C@H]2NC(=O)c1nn(-c2ccc(F)cc2F)c2c1CCCCC2Cc1cccc(F)c1 (stereo partly drawn) [Cpd 92, 1-(2,4-difluoro-phenyl)-8-(3-fluoro-benzyl)-1,4,5,6,7,8-hexahydro-cycloheptapyrazole-3-carboxylic acid [(2S)-1,3,3-trimethyl-bicyclo[2.2.1]hept-2-yl]-amide] | 7.00 | 7.05 | – | – | inhibition at 1 µM (CB1 receptor [1]): 86%; pIC50 (CB2 receptor): 6.70; inhibition at 1 µM (CB2 receptor): 82% |
| CS(=O)(=O)n1nc(C(=O)NCc2ccccc2)c2c1C(Cc1ccc(F)cc1)CCCC2 (stereo not drawn) [Cpd 130, 8-(4-fluoro-benzyl)-1-methanesulfonyl-1,4,5,6,7,8-hexahydro-cycloheptapyrazole-3-carboxylic acid benzylamide] | 7.22 | – | – | – | inhibition at 0.25 µM (CB1 receptor [1]): 84%; pEC50 (CB1 receptor [2]; [5]): > 7.52; inhibition at 0.25 µM (CB2 receptor): 98% |
| C[C@@H](NC(=O)c1nn(-c2ccc(Cl)cc2Cl)c2c1CCCC/C2=C\c1ccc(F)cc1)c1ccccc1 [Cpd 146, (8E)-1-(2,4-dichloro-phenyl)-8-(4-fluoro-benzylidene)-1,4,5,6,7,8-hexahydro-cycloheptapyrazole-3-carboxylic acid [(1R)-1-phenyl-ethyl]-amide] | 8.10 and 8.00 | 7.70 | 93 | 10 | pIC50 (CB2 receptor): 5.64; CB2 receptor binding percent inhibition (CB2 receptor): 3% |
| COc1ccc(/C=C2\CCCCc3c(C(=O)N[C@H](C)c4ccccn4)nn(-c4ccc(Cl)cc4Cl)c32)cc1 [Cpd 227, (8E)-1-(2,4-dichloro-phenyl)-8-(4-methoxy-benzylidene)-1,4,5,6,7,8-hexahydro-cycloheptapyrazole-3-carboxylic acid [(1R)-1-pyridin-2-yl-ethyl)-amide] | 8.05 | 8.70 | 90 | 19 | – |
| COc1ccc(/C=C2\CCCCc3c(C(=O)NC(C)(C)c4ccccc4)nn(-c4ccc(Cl)cc4Cl)c32)cc1 [Cpd 211, (8E)-1-(2,4-dichloro-phenyl)-8-(4-methoxy-benzylidene)-1,4,5,6,7,8-hexahydro-cycloheptapyrazole-3-carboxylic acid (1-methyl-1-phenyl-ethyl)-amide] | 8.15 | 7.70 | 92 | 37 | – |
| C[C@H](NC(=O)c1nn(-c2ccc(Cl)cc2Cl)c2c1CCCC/C2=C\c1ccc(Cl)cc1)C1CCCCC1 [Cpd 138, (8E)-8-(4-chloro-benzylidene)-1-(2,4-dichloro-phenyl)-1,4,5,6,7,8-hexahydro-cycloheptapyrazole-3-carboxylic acid [(1S)-1-cyclohexyl-ethyl]-amide] | 7.52 | 7.00 | 71 | 22 | – |
| C[C@H](NS(=O)(=O)/C=C/c1nn(-c2ccc(F)cc2F)c2c1CCCCC2Cc1ccc(F)cc1)c1ccccc1 (stereo partly drawn) [Cpd 107, (2E)-2-[1-(2,4-difluoro-phenyl)-8-(4-fluoro-benzyl)-1,4,5,6,7,8-hexahydro-cycloheptapyrazol-3-yl]-ethenesulfonic acid [(1S)-1-phenyl-ethyl]-amide] | – | – | – | – | pIC50 (CB1 receptor [1]; calculated by linear regression from percent inhibition at various test concentrations, read-out: Cannabinoid CB1 Receptor Binding IC50): 6.52; inhibition at 0.5 µM (CB1 receptor [1]; read-out: CB1 receptor binding percent inhibition, test concentration 0.5 μM (footnote 10)): 59%; inhibition at 1 µM (CB1 receptor [1]): 72%; pEC50 (CB1 receptor [2]; SK-N-MC cells, forskolin induced β-galactosidase activity, read-out: CB1 Receptor Functional Agonist EC50): 4.70; CB2 receptor binding percent inhibition (CB2 receptor): 64% |
| COc1ccc(/C=C2\CCCCc3c(C(=O)N[C@H](C)C4CCCCC4)nn(-c4ccc(Cl)cc4Cl)c32)cc1 [Cpd 214, (8E)-1-(2,4-dichloro-phenyl)-8-(4-methoxy-benzylidene)-1,4,5,6,7,8-hexahydro-cycloheptapyrazole-3-carboxylic acid [(1R)-1-cyclohexyl-ethyl]-amide] | 8.15 | 7.52 | 95 | 43 | – |
| COc1ccc(/C=C2\CCCCc3c(C(=O)N[C@H](CO)c4ccccc4)nn(-c4ccc(Cl)cc4Cl)c32)cc1 [Cpd 215, (8E)-1-(2,4-dichloro-phenyl)-8-(4-methoxy-benzylidene)-1,4,5,6,7,8-hexahydro-cycloheptapyrazole-3-carboxylic acid [(1S)-2-hydroxy-1-phenyl-ethyl]-amide] | 8.00 | 8.00 | 88 | 24 | – |
| Cn1nc(C(=O)N[C@H]2C3(C)CCC(C3)C2(C)C)c2c1C(Cc1ccccc1Cl)CCCC2 (stereo partly drawn) [Cpd 40, 8-(2-chloro-benzyl)-1-methyl-1,4,5,6,7,8-hexahydro-cycloheptapyrazole-3-carboxylic acid [(2S)-1,3,3-trimethyl-bicyclo[2.2.1]hept-2-yl]-amide] | 7.15 | – | – | – | inhibition at 1 µM (CB1 receptor [1]): 84%; pEC50 (CB1 receptor [2]; [5]): 7.00; inhibition at 0.015 µM (CB2 receptor; read-out: CB2 receptor binding percent inhibition, test concentration 0.015 μM (footnote 7)): 65%; inhibition at 1 µM (CB2 receptor): 84%; CB2 receptor binding percent inhibition (CB2 receptor): 75% |
| C[C@H](NS(=O)(=O)/C=C/c1nn(C)c2c1CCCCC2Cc1cccc(F)c1)c1ccccc1 (stereo partly drawn) [Cpd 104, (2E)-2-[8-(3-fluoro-benzyl)-1-methyl-1,4,5,6,7,8-hexahydro-cycloheptapyrazol-3-yl]-ethenesulfonic acid [(1S)-1-phenyl-ethyl]-amide] | – | 7.00 | – | – | inhibition at 1 µM (CB1 receptor [1]): 19%; CB2 receptor binding percent inhibition (CB2 receptor): 93% |
| CC[C@@H](NC(=O)c1nn(-c2ccc(Cl)cc2Cl)c2c1CCCC/C2=C\c1ccc(F)cc1)c1ccccc1 [Cpd 202, (8E)-1-(2,4-dichloro-phenyl)-8-(4-fluoro-benzylidene)-1,4,5,6,7,8-hexahydro-cycloheptapyrazole-3-carboxylic acid [(1R)-1-phenyl-propyl]-amide] | 8.00 | 8.05 | 91 | 9 | – |
| O=C(NN1CCOCC1)c1nn(-c2ccc(Cl)cc2Cl)c2c1CCCC/C2=C\c1ccc(F)cc1 [Cpd 151, (8E)-1-(2,4-dichloro-phenyl)-8-(4-fluoro-benzylidene)-1,4,5,6,7,8-hexahydro-cycloheptapyrazole-3-carboxylic acid morpholin-4-ylamide] | – | 7.22 | 51 | 15 | – |
| CC(C)(NC(=O)c1nn(-c2ccc(Cl)cc2Cl)c2c1CCCC/C2=C\c1ccc(F)cc1)c1ccccc1 [Cpd 205, (8E)-1-(2,4-dichloro-phenyl)-8-(4-fluoro-benzylidene)-1,4,5,6,7,8-hexahydro-cycloheptapyrazole-3-carboxylic acid (1-methyl-1-phenyl-ethyl)-amide] | 7.70 | 8.05 | 93 | 27 | – |
| O=C(NS(=O)(=O)c1ccccc1)c1nn(-c2ccc(Cl)cc2Cl)c2c1CCCC/C2=C\c1ccc(Cl)cc1 [Cpd 136, (8E)-N-[8-(4-chloro-benzylidene)-1-(2,4-dichloro-phenyl)-1,4,5,6,7,8-hexahydro-cycloheptapyrazole-3-carbonyl]-benzenesulfonamide] | – | 7.52 | – | – | inhibition at 0.25 µM (CB1 receptor [1]): 39%; inhibition at 0.25 µM (CB2 receptor): 18% |
| O=C(NN1CCOCC1)c1nn(-c2ccc(Cl)cc2Cl)c2c1CCCC/C2=C\c1ccc(Cl)cc1 [Cpd 134, (8E)-8-(4-chloro-benzylidene)-1-(2,4-dichloro-phenyl)-1,4,5,6,7,8-hexahydro-cycloheptapyrazole-3-carboxylic acid morpholin-4-ylamide] | – | 8.00 | – | – | inhibition at 0.25 µM (CB1 receptor [1]): 58%; inhibition at 0.25 µM (CB2 receptor): 28% |
| O=C(NC1CCCc2ccccc21)c1nn(-c2ccc(Cl)cc2Cl)c2c1CCCC/C2=C\c1ccc(F)cc1 (stereo not drawn) [Cpd 209, (8E)-1-(2,4-dichloro-phenyl)-8-(4-fluoro-benzylidene)-1,4,5,6,7,8-hexahydro-cycloheptapyrazole-3-carboxylic acid (1,2,3,4-tetrahydro-naphthalen-1-yl)-amide] | 7.52 | 8.00 | 88 | 8 | – |
| C[C@@H](NC(=O)c1nn(-c2ccc(Cl)cc2Cl)c2c1CCCC/C2=C\c1ccc(Cl)cc1)C1CCCCC1 [Cpd 132, (8E)-8-(4-chloro-benzylidene)-1-(2,4-dichloro-phenyl)-1,4,5,6,7,8-hexahydro-cycloheptapyrazole-3-carboxylic acid [(1R)-1-cyclohexyl-ethyl]-amide] | 8.30 | 8.00 | – | – | inhibition at 0.015 µM (CB1 receptor [1]; read-out: CB1 receptor binding percent inhibition, test concentration 0.015 μM (footnote 7)): 64%; inhibition at 0.25 µM (CB1 receptor [1]): 94%; inhibition at 0.25 µM (CB2 receptor): 42% |
